According to patent US20090076044A1, “VEGFR INHIBITORS CONTAINING A ZINC BINDING MOIETY” (priority 2007, published 2009):

Assays:
Format in all cases: biochemical
[1] = tested on: HDAC; test: HDAC fluorimetric assay kit (HeLa nuclear extract)
Description: (b) An In Vitro Assay which Determines the Ability of a Test Compound to Inhibit HDAC Enzymatic Activity.
HDAC inhibitors were screened using an HDAC fluorimetric assay kit (AK-500, Biomol, Plymouth Meeting, Pa.). Test compounds were dissolved in dimethylsulphoxide (DMSO) to give a 20 mM working stock concentration. Fluorescence was measured on a WALLAC Victor 2 plate reader and reported as relative fluorescence units (RFU). Data were plotted using GraphPad Prism (v4.0a) and IC50's calculated using a sigmoidal dose response curve fitting algorithm. Each assay was setup as follows: Defrosted all kit components and kept on ice until use. Diluted HeLa nuclear extract 1:29 in Assay Buffer (50 mM Tris/Cl, pH 8.0, 137 mM NaCl, 2.7 mM KCl, 1 mM MgCl2). Prepared dilutions of Trichostatin A (TSA, positive control) and tested compounds in assay buffer (5× of final concentration). Diluted Fluor de Lys™ Substrate in assay buffer to 100 uM (50 fold=2× final). Diluted Fluor de Lys™ developer concentrate 20-fold (e.g. 50 μl plus 950 μl Assay Buffer) in cold assay buffer. Second, diluted the 0.2 mM Trichostatin A 100-fold in the 1× Developer (e.g. 10 μl in 1 ml; final Trichostatin A concentration in the 1× Developer=2 μM; final concentration after addition to HDAC/Substrate reaction=1 μM). Added Assay buffer, diluted trichostatin A or test inhibitor to appropriate wells of the microtiter plate. Added diluted HeLa extract or other HDAC sample to all wells except for negative controls. Allowed diluted Fluor de Lys™ Substrate and the samples in the microtiter plate to equilibrate to assay temperature (e.g. 25 or 37° C. Initiated HDAC reactions by adding diluted substrate (25 μl) to each well and mixing thoroughly. Allowed HDAC reactions to proceed for 1 hour and then stopped them by addition of Fluor de Lys™ Developer (50 μl). Incubated plate at room temperature (25° C.) for 10-15 min. Read samples in a microtiter-plate reading fluorimeter capable of excitation at a wavelength in the range 350-380 nm and detection of emitted light in the range 440-460 nm.

[2] = target: T1, human VEGFR2 (Homo sapiens, UniProt P35968); test: VEGFR2/KDR radioisotope kinase assay; conditions: 100 μM ATP; read-out: VEGFR2 IC50
T1 construct: kinase domain (amino acids 790 to end) fragment; 6xHis (N); made in house; host or cells: Sf21 insect cells (baculovirus)
Description: (a) An In Vitro Assay which-Determines the Ability of a Test Compound to Inhibit a Receptor Tyrosine Kinase.
The ability of compounds to inhibit receptor kinase (VEGFR2 and PDGFR-beta) activity was assayed using standard radioisotope assay for kinase. […] The proteins were purified using Ni2+/NTA agarose affinity column to purity
>85% as determined by coomassie blue-stained SDS-PAGE gel. For VEGFR2/KDR assay, p33 ATP tracers were incubated with purified recombinant VEGFR2 kinase to monitor the enzyme activity. In this assay, reactions were carried out in the presence of 0.1 mg/ml VEGFR2 kinase and 0.33 mg/ml myelin basic protein. The reaction was carried out at 30° C. for 120 minutes in a final assay condition contained 50 mM Tris-HCl, pH 7.5, 300 mM NaCl, 0.1 mM EGTA, 0.03% Brij 35, 270 mM sucrose, 1 mM benzamidine, 0.2 mM PMSF, 0.1% 2-mercaptoethanol and 100 μM ATP. An equal volume of 25% TCA was added to stop the reaction and precipitate the labeled proteins. Precipitated proteins were trapped onto glass fiber B filterplates and excess unlabeled p33 ATP was washed off. The plates were allowed to air-dry prior to the addition of 30 uL/well of Packard Microscint 20. The amount of incorporated isotope was measured using a Perkin Elmer TopCount plate reader. Different concentrations of compounds were added to reaction to assess the activity of compounds to inhibit VEGFR2 kinase. IC50 was calculated using Prism software with sigmoidal dose-response curve fitting.

[3] = target: T2, human EGFR (Homo sapiens, UniProt P00533); test: EGFR kinase assay (HTScan EGF Receptor Kinase Assay Kit, DELFIA); conditions: 200 μM ATP
T2 construct: human EGFR (His672-Ala1210); purchased Cell Signaling Technologies; host or cells: baculovirus expression system
Description: (e) An In Vitro Assay which Determines the Ability of a Test Compound to Inhibit EGFR Kinase.
The ability of compounds to inhibit receptor kinase (EGFR) activity was assayed using HTScan™ EGF Receptor Kinase Assay Kits (Cell Signaling Technologies, Danvers, Mass.). EGFR tyrosine kinase was obtained as GST-kinase fusion protein which was produced using a baculovirus expression system with a construct expressing human EGFR (His672-Ala1210) (GenBank Accession No. NM_005228) with an amino-terminal GST tag. The protein was purified by one-step affinity chromatography using glutathione-agarose. An anti-phosphotyrosine monoclonal antibody, P-Tyr-100, was used to detect phosphorylation of biotinylated substrate peptides (EGFR), Biotin-PTP1B (Tyr66). Enzymatic activity was tested in 60 mM HEPES, 5 mM MgCl2 5 mM MnCl2 200 μM ATP, 1.25 mM DTT, 3 μM Na3VO4, 1.5 mM peptide, and 50 ng EGF Receptor Kinase. Bound antibody was detected using the DELFIA system (PerkinElmer, Wellesley, Mass.) consisting of DELFIA® Europium-labeled Anti-mouse IgG (PerkinElmer, #AD0124), DELFIA® Enhancement Solution (PerkinElmer, #1244-105), and a DELFIA® Streptavidin coated, 96-well Plate (PerkinElmer, AAAND-0005). Fluorescence was measured on a WALLAC Victor 2 plate reader and reported as relative fluorescence units (RFU). Data were plotted using GraphPad Prism (v4.0a) and IC50's calculated using a sigmoidal dose response curve fitting algorithm.
Test compounds were dissolved in dimethylsulfoxide (DMSO) to give a 20 mM working stock concentration. Each assay was setup as follows: Added 100 μl of 10 mM ATP to 1.25 ml 6 mM substrate peptide. Diluted the mixture with dH2O to 2.5 ml to make 2×ATP/substrate cocktail ([ATP]=[…], [substrate]=3 mM). Immediately transfer enzyme from −80° C. to ice. Allowed enzyme to thaw on ice. Microcentrifuged briefly at 4° C. to bring liquid to the bottom of the vial. Returned immediately to ice. Added 10 μl of DTT (1.25 mM) to 2.5 ml of 4× HTScan™ Tyrosine Kinase Buffer (240 mM HEPES pH 7.5, 20 mM MgCl2, 20 mM MnCl, 12 mM NaVO3) to make DTT/Kinase buffer. Transfer 1.25 ml of DTT/Kinase buffer to enzyme tube to make 4× reaction cocktail ([enzyme]=4 ng/μL in 4× reaction cocktail). Incubated 12.5 μl of the 4× reaction cocktail with 12.5 μl/well of prediluted compound of interest (usually around 10 μM) for 5 minutes at room temperature. Added 25 μl of 2×ATP/substrate cocktail to 25 μl/well preincubated reaction cocktail/compound. Incubated reaction plate at room temperature for 30 minutes. Added 50 μl/well Stop Buffer (50 mM EDTA, pH 8) to stop the reaction. Transferred 25 μl of each reaction and 75 μl dH2O/well to a 96-well streptavidin-coated plate and incubated at room temperature for 60 minutes. Washed three times with 200 μl/well PBS/T (PBS, 0.05% Tween-20). Diluted primary antibody, Phospho-Tyrosine mAb (P-Tyr-100), 1:1000 in PBS/T with 1% bovine serum albumin (BSA). Added 100 μl/well primary antibody. Incubated at room temperature for 60 minutes. Washed three times with 200 μl/well PBS/T. Diluted Europium labeled anti-mouse IgG 1:500 in PBS/T with 1% BSA. Added 100 μl/well diluted antibody. Incubated at room temperature for 30 minutes. Washed five times with 200 μl/well PBS/T. Added 100 μl/well DELFIA® Enhancement Solution. Incubated at room temperature for 5 minutes. Detected 615 nm fluorescence emission with appropriate Time-Resolved Plate Reader.

T2 sequence (P00533 672-1210): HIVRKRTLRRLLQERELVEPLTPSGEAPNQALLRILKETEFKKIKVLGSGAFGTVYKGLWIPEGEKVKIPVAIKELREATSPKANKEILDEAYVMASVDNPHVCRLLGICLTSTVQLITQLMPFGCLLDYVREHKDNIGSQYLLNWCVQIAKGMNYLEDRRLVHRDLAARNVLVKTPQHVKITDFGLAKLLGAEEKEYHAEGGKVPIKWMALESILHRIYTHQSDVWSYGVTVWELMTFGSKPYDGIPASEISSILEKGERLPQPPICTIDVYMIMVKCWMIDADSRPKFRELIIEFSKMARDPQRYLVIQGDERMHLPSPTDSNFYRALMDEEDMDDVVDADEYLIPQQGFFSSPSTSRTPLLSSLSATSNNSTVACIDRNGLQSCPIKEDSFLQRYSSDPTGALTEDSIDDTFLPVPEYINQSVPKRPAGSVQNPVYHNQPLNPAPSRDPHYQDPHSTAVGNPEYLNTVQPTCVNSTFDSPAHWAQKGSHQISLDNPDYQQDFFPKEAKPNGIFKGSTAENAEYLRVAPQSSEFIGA
T1 sequence (P35968 790-1356 limits assumed): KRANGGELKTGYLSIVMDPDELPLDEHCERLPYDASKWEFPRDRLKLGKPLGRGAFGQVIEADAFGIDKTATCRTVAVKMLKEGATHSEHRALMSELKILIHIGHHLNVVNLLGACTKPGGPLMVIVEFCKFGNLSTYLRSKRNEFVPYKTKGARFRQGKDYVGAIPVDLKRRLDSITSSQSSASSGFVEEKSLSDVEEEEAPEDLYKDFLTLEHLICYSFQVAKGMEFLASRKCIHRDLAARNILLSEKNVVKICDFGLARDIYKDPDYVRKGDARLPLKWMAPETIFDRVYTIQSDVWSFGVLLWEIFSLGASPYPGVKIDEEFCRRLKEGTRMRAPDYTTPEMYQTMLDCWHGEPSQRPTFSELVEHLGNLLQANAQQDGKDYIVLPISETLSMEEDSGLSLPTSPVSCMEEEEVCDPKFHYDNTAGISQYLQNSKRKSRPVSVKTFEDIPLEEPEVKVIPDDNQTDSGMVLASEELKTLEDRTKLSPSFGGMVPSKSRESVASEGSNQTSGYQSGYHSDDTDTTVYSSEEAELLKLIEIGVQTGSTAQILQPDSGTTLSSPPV

IC50 [1] [µM]	IC50 [2] [µM]	IC50 [3] [µM]	SMILES
< 0.1	1 to 10		COc1cc2c(Nc3ccc4occc4c3)ncnc2cc1OCCCCCCC(=O)NO [Compound 6, 7-(4-(benzofuran-5-ylamino)-6-methoxyquinazolin-7-yloxy)-N-hydroxyheptanamide]
0.1 to 1			COc1cc2c(Oc3ccc4[nH]c(C)cc4c3F)ncnc2cc1OCCCCC(=O)NO [Compound 9, 5-(4-(4-fluoro-2-methyl-1H-indol-5-yloxy)-6-methoxyquinazolin-7-yloxy)-N-hydroxypentanamide]
0.1 to 1		0.1 to 1	COc1cc2c(Nc3ccc4[nH]c(C)cc4c3F)ncnc2cc1OCCCCC(=O)NO [Compound 12, 5-(4-(4-fluoro-2-methyl-1H-indol-5-ylamino)-6-methoxyquinazolin-7-yloxy)-N-hydroxypentanamide]
